According to the kinase profiling compilation of Christmann-Franck et al. (2016):

What was measured:
Test in all cases: KINOMEscan competition binding
Settings in all cases: compound 10.0 µM
AKT2 (human) = AKT2 (human) (UniProt P31751)
CDC42BPB (human) = CDC42BPB (human) (UniProt Q9Y5S2)
CDK3 (human) = CDK3 (human) (UniProt Q00526)
CDK5 (human) = CDK5 (human) (UniProt Q00535)
CLK3 (human) = CLK3 (human) (UniProt P49761)
CSNK1G2 (human) = CSNK1G2 (human) (UniProt P78368)
EPHA4 (human) = EPHA4 (human) (UniProt P54764)
EPHA6 (human) = EPHA6 (human) (UniProt Q9UF33)
ERBB4 (human) = ERBB4 (human) (UniProt Q15303)
FGFR2 (human) = FGFR2 (human) (UniProt P21802)
Chain of FGFR2 (human) (P21802 whole entry, looked up): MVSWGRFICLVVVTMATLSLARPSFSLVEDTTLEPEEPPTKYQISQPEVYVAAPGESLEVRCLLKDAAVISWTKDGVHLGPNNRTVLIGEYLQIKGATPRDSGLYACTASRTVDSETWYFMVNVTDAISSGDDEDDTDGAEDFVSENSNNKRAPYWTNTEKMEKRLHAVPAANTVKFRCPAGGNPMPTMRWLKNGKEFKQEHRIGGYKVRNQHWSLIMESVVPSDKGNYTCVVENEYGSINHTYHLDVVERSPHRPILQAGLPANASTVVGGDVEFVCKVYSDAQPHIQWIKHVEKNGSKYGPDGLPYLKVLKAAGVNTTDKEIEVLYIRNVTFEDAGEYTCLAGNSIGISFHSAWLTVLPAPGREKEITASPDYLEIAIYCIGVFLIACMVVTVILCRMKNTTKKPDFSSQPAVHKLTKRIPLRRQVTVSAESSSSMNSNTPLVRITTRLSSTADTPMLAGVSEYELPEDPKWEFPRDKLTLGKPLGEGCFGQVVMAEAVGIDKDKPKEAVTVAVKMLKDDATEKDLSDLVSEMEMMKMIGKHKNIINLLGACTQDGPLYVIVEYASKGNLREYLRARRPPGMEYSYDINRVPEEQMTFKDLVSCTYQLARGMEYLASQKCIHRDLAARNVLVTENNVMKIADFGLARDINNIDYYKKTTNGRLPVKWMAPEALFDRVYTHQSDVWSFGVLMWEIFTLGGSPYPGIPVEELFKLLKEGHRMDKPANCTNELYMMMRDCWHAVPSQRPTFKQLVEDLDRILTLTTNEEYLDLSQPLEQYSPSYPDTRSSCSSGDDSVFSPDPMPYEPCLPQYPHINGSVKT

GRK1 (human) = GRK1 (human) (UniProt Q15835)
Chain of GRK1 (human) (Q15835 whole entry, looked up): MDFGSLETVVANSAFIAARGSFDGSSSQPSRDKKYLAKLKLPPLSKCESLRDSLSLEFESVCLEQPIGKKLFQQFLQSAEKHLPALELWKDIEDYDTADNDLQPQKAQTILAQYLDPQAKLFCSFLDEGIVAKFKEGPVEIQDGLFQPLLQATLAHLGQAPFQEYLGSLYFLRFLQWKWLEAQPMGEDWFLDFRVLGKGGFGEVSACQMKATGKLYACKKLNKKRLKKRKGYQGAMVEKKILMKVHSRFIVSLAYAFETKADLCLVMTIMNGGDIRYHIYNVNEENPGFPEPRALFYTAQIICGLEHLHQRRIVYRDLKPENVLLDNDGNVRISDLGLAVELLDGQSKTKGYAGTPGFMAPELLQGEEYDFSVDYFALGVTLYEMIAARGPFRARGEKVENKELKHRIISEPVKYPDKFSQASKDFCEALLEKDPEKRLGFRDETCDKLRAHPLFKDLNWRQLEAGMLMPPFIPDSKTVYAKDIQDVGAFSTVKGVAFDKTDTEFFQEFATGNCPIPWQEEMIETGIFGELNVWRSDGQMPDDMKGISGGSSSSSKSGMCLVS

GRK7 (human) = GRK7 (human) (UniProt Q8WTQ7)
ITK (human) = ITK (human) (UniProt Q08881)
Chain of ITK (human) (Q08881 whole entry, looked up): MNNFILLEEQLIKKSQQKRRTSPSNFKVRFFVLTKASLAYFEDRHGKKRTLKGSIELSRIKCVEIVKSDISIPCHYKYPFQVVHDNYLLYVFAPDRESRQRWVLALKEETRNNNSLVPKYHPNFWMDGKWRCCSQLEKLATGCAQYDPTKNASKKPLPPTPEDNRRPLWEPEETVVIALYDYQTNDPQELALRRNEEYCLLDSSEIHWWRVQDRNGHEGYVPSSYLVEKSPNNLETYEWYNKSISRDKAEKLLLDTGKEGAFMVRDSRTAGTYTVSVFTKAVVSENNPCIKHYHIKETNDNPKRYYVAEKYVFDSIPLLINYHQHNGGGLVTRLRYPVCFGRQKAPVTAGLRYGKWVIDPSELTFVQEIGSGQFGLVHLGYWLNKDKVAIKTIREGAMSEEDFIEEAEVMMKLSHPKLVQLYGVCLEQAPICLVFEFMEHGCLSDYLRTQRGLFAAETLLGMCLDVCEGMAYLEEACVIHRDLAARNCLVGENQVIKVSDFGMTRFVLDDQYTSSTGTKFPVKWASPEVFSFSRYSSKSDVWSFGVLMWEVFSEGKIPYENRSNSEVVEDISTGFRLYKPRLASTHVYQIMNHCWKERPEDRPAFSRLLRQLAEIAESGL

LATS2 (human) = LATS2 (human) (UniProt Q9NRM7)
LTK (human) = LTK (human) (UniProt P29376)
MARK3 (human) = MARK3 (human) (UniProt P27448)
MARK4 (human) = MARK4 (human) (UniProt Q96L34)
MERTK (human) = MERTK (human) (UniProt Q12866)
Chain of MERTK (human) (Q12866 whole entry, looked up): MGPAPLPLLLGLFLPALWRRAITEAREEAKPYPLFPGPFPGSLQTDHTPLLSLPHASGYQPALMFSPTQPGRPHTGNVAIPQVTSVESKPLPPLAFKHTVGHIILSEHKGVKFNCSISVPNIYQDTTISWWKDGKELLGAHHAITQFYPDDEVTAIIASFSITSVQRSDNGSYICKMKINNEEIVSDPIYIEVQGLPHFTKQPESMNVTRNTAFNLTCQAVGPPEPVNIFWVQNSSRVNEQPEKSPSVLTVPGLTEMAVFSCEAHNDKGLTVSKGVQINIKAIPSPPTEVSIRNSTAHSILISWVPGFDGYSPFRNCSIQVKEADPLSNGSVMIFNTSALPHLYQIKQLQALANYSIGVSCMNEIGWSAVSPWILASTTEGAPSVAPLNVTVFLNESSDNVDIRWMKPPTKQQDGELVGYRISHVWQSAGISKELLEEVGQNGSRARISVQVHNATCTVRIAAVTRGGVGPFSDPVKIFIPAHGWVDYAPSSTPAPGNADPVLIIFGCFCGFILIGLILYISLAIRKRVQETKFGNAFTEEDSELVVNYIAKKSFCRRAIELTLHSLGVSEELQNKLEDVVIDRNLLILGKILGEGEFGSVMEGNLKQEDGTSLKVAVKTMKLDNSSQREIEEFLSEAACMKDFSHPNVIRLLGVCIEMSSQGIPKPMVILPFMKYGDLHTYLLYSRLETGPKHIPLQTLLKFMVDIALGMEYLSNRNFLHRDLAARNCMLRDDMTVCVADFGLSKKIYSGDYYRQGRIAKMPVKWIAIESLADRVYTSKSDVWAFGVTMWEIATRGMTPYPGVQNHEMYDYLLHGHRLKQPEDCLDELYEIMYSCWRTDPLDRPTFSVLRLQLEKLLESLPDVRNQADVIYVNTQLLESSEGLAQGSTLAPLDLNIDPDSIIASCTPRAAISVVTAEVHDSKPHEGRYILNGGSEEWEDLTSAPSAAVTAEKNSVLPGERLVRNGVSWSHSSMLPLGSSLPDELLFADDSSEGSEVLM

MLTK (human) = MLTK (human) (UniProt Q9NYL2)
PIK3C2G (human) = PIK3C2G (human) (UniProt O75747)
PIK3CB (human) = PIK3CB (human) (UniProt P42338)
PIK3CD (human) = PIK3CD (human) (UniProt O00329)
PIP4K2B (human) = PIP4K2B (human) (UniProt P78356)
PKN1 (human) = PKN1 (human) (UniProt Q16512)
PLK3 (human) = PLK3 (human) (UniProt Q9H4B4)
PRKCI (human) = PRKCI (human) (UniProt P41743)
Chain of PRKCI (human) (P41743 whole entry, looked up): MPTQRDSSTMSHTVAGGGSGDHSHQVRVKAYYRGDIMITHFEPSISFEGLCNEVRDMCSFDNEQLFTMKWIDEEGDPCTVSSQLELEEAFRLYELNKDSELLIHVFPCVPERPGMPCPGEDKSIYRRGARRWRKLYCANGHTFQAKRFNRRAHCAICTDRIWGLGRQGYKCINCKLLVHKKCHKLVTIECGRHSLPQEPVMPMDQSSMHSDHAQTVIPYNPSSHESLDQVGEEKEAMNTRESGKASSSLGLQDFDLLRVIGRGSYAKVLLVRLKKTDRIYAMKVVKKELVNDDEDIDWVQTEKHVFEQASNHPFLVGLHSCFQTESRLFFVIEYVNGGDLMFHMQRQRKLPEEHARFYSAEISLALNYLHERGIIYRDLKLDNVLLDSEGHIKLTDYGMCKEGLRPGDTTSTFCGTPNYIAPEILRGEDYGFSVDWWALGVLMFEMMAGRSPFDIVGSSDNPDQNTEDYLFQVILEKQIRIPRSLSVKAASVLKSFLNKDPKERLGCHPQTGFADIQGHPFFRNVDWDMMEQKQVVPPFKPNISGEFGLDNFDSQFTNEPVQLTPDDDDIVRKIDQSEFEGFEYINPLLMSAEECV

PRKD2 (human) = PRKD2 (human) (UniProt Q9BZL6)
PTK2B (human) = PTK2B (human) (UniProt Q14289)
ROS1 (human) = ROS1 (human) (UniProt P08922)
RPS6KA6 KD1 (human) = RPS6KA6 KD1 (human) (UniProt Q9UK32)
RPS6KB1 (human) = RPS6KB1 (human) (UniProt P23443)
STK25 (human) = STK25 (human) (UniProt O00506)
STK32A (human) = STK32A (human) (UniProt Q8WU08)
STK36 (human) = STK36 (human) (UniProt Q9NRP7)
STK38L (human) = STK38L (human) (UniProt Q9Y2H1)
Chain of STK38L (human) (Q9Y2H1 whole entry, looked up): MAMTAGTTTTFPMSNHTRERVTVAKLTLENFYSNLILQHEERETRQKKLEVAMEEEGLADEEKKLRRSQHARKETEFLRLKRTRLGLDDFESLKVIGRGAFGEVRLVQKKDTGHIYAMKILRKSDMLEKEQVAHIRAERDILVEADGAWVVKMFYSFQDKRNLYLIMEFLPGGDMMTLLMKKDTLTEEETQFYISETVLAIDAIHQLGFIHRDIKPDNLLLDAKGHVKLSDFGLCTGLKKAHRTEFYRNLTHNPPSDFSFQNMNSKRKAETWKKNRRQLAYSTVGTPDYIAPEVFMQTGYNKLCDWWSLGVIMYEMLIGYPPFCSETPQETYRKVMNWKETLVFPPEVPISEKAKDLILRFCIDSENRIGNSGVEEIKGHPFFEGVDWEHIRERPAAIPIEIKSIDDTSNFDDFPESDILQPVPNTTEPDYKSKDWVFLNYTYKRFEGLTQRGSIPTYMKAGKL

SYK (human) = SYK (human) (UniProt P43405)
TBK1 (human) = TBK1 (human) (UniProt Q9UHD2)
TLK2 (human) = TLK2 (human) (UniProt Q86UE8)
ULK2 (human) = ULK2 (human) (UniProt Q8IYT8)
STK33 (human) = STK33 (human) (UniProt Q9BYT3)

Chain of AKT2 (human) (P31751 whole entry, looked up): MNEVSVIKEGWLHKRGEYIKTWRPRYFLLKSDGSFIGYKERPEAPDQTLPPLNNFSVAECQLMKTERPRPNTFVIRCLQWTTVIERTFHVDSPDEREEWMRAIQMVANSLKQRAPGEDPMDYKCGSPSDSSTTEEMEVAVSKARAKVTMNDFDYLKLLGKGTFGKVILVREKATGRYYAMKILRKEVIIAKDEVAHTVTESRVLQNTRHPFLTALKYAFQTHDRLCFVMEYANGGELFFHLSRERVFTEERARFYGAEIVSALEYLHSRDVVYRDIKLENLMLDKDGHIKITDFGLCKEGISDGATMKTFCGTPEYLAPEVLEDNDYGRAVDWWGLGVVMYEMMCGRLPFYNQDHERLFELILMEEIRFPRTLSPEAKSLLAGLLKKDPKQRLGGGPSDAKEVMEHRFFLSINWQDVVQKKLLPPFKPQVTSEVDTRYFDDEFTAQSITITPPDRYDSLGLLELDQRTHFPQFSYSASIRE
Chain of CSNK1G2 (human) (P78368 whole entry, looked up): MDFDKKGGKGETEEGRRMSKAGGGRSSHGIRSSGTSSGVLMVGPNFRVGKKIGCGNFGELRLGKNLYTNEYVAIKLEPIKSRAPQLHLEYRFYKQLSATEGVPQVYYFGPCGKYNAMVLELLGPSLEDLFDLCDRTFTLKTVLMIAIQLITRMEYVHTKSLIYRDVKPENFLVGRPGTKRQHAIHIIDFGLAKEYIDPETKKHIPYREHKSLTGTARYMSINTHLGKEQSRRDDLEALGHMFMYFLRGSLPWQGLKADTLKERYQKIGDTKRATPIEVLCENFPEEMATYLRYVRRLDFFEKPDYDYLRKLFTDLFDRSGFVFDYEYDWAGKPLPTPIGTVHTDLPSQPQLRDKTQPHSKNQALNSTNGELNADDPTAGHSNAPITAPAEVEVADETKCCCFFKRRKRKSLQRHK

SMILES | kinase still bound, per cent of control (AKT2 (human)) [%] | kinase still bound, per cent of control (CDC42BPB (human)) [%] | kinase still bound, per cent of control (CDK3 (human)) [%] | kinase still bound, per cent of control (CDK5 (human)) [%] | kinase still bound, per cent of control (CLK3 (human)) [%] | kinase still bound, per cent of control (CSNK1G2 (human)) [%] | kinase still bound, per cent of control (EPHA4 (human)) [%] | kinase still bound, per cent of control (EPHA6 (human)) [%] | kinase still bound, per cent of control (ERBB4 (human)) [%] | kinase still bound, per cent of control (FGFR2 (human)) [%] | kinase still bound, per cent of control (GRK1 (human)) [%] | kinase still bound, per cent of control (GRK7 (human)) [%] | kinase still bound, per cent of control (ITK (human)) [%] | kinase still bound, per cent of control (LATS2 (human)) [%] | kinase still bound, per cent of control (LTK (human)) [%] | kinase still bound, per cent of control (MARK3 (human)) [%] | kinase still bound, per cent of control (MARK4 (human)) [%] | kinase still bound, per cent of control (MLTK (human)) [%] | kinase still bound, per cent of control (PIK3C2G (human)) [%] | kinase still bound, per cent of control (PIK3CB (human)) [%] | also measured
COCC(=O)NC/C=C/c1ccc2ncnc(Nc3ccc(Oc4ccc(C)nc4)c(C)c3)c2c1 | 100 | 96 | 100 | 100 | 100 | 100 | 98 | 96 | 0.9 | 100 | 100 | 100 | 92 | 100 | 88 | 100 | 100 | 76 | 24 | 100 | kinase still bound, per cent of control (MERTK (human)): 97%; kinase still bound, per cent of control (PIK3CD (human)): 100%; kinase still bound, per cent of control (PIP4K2B (human)): 100%; kinase still bound, per cent of control (PKN1 (human)): 100%; kinase still bound, per cent of control (PLK3 (human)): 99%; kinase still bound, per cent of control (PRKCI (human)): 93%; kinase still bound, per cent of control (PRKD2 (human)): 97%; kinase still bound, per cent of control (PTK2B (human)): 80%; kinase still bound, per cent of control (ROS1 (human)): 100%; kinase still bound, per cent of control (RPS6KA6 KD1 (human)): 96%; kinase still bound, per cent of control (RPS6KB1 (human)): 65%; kinase still bound, per cent of control (STK25 (human)): 94%; kinase still bound, per cent of control (STK32A (human)): 100%; kinase still bound, per cent of control (STK36 (human)): 100%; kinase still bound, per cent of control (STK38L (human)): 100%; kinase still bound, per cent of control (SYK (human)): 100%; kinase still bound, per cent of control (TBK1 (human)): 90%; kinase still bound, per cent of control (TLK2 (human)): 100%; kinase still bound, per cent of control (ULK2 (human)): 100%
N#CCNC(=O)c1ccc(-c2ccnc(Nc3ccc(N4CCOCC4)cc3)n2)cc1 | 76 | 42 | 100 | 100 | 91 | 100 | 100 | 98 | 100 | 58 | 100 | 100 | 98 | 74 | 100 | 16 | 42 | 100 | 100 | 100 | kinase still bound, per cent of control (MERTK (human)): 100%; kinase still bound, per cent of control (PIK3CD (human)): 45%; kinase still bound, per cent of control (PIP4K2B (human)): 89%; kinase still bound, per cent of control (PKN1 (human)): 66%; kinase still bound, per cent of control (PLK3 (human)): 11%; kinase still bound, per cent of control (PRKCI (human)): 75%; kinase still bound, per cent of control (PRKD2 (human)): 43%; kinase still bound, per cent of control (PTK2B (human)): 86%; kinase still bound, per cent of control (ROS1 (human)): 100%; kinase still bound, per cent of control (RPS6KA6 KD1 (human)): 78%; kinase still bound, per cent of control (RPS6KB1 (human)): 100%; kinase still bound, per cent of control (STK25 (human)): 71%; kinase still bound, per cent of control (STK32A (human)): 100%; kinase still bound, per cent of control (STK33 (human)): 98%; kinase still bound, per cent of control (STK36 (human)): 95%; kinase still bound, per cent of control (STK38L (human)): 71%; kinase still bound, per cent of control (SYK (human)): 32%; kinase still bound, per cent of control (TBK1 (human)): 10%; kinase still bound, per cent of control (TLK2 (human)): 88%; kinase still bound, per cent of control (ULK2 (human)): 60%
O=c1cc(N2CCOCC2)oc2c(-c3cccc4c3sc3ccccc34)cccc12 | 51 | 88 | 100 | 100 | 100 | 85 | 82 | 89 | 92 | 82 | 100 | 92 | 100 | 100 | 93 | 99 | 100 | 93 | 16 | 0 | kinase still bound, per cent of control (MERTK (human)): 100%; kinase still bound, per cent of control (PIK3CD (human)): 3.3%; kinase still bound, per cent of control (PIP4K2B (human)): 100%; kinase still bound, per cent of control (PKN1 (human)): 100%; kinase still bound, per cent of control (PLK3 (human)): 86%; kinase still bound, per cent of control (PRKCI (human)): 100%; kinase still bound, per cent of control (PRKD2 (human)): 100%; kinase still bound, per cent of control (PTK2B (human)): 94%; kinase still bound, per cent of control (ROS1 (human)): 90%; kinase still bound, per cent of control (RPS6KA6 KD1 (human)): 71%; kinase still bound, per cent of control (RPS6KB1 (human)): 67%; kinase still bound, per cent of control (STK25 (human)): 59%; kinase still bound, per cent of control (STK32A (human)): 100%; kinase still bound, per cent of control (STK33 (human)): 100%; kinase still bound, per cent of control (STK36 (human)): 100%; kinase still bound, per cent of control (STK38L (human)): 95%; kinase still bound, per cent of control (SYK (human)): 100%; kinase still bound, per cent of control (TBK1 (human)): 84%; kinase still bound, per cent of control (TLK2 (human)): 80%; kinase still bound, per cent of control (ULK2 (human)): 98%
CNC(=O)c1cc(Oc2ccc(NC(=O)Nc3ccc(Cl)c(C(F)(F)F)c3)cc2)ccn1 | 70 | 100 | 52 | 39 | 91 | 94 | 42 | 9.2 | 100 | 14 | 100 | 100 | 100 | 85 | 88 | 74 | 100 | 4.2 | 80 | 100 | kinase still bound, per cent of control (PIP4K2B (human)): 94%; kinase still bound, per cent of control (PKN1 (human)): 99%; kinase still bound, per cent of control (PRKCI (human)): 100%; kinase still bound, per cent of control (PRKD2 (human)): 96%; kinase still bound, per cent of control (PTK2B (human)): 100%; kinase still bound, per cent of control (ROS1 (human)): 83%; kinase still bound, per cent of control (RPS6KB1 (human)): 63%; kinase still bound, per cent of control (STK25 (human)): 80%; kinase still bound, per cent of control (STK32A (human)): 100%; kinase still bound, per cent of control (STK33 (human)): 33%; kinase still bound, per cent of control (STK36 (human)): 23%; kinase still bound, per cent of control (STK38L (human)): 100%; kinase still bound, per cent of control (SYK (human)): 88%; kinase still bound, per cent of control (TBK1 (human)): 100%; kinase still bound, per cent of control (TLK2 (human)): 91%; kinase still bound, per cent of control (ULK2 (human)): 89%
